Data as given in US20230277483A1, “COMPOSITIONS AND METHODS TO TREAT INFLAMMATION” (University of Iowa Research Foundation, priority 2022, published 2023).

Test system: human gingival fibroblasts (HGF)
Experiment: Proinflammatory cytokines after Pg-LPS challenge (qRT-PCR, ELISA, antibody array)
Format: cell-based
Method: Sg metabolites modulate proinflammatory cytokines in human periodontal associated cells in vitro. Sg were cultured in a total of 40 ml DMEM for 24 hrs. After 200 μl of Sg suspension reached 0.2 at OD600 value in a 96-well plate, the Sg metabolites were collected by centrifugation at 3000 g for 10 min and then filtered through a 0.22 μm filter. No toxicity of Sg metabolites was detected using an MTT assay on primary human bone marrow mesenchymal stromal cells (BMSCs) and primary human gingival fibroblasts (HGF) (data no shown). The modulation of Sg metabolites on inflammatory cytokines was tested using human monocyte-derived macrophages (MDM) and HGF. The MDM were generated by inducing a human macrophage cell line (THP-1) using PMA at 10 ng/ml. The MDM at 2×10^6 cells/per well and HGF at 2×10^4 cells/per well were cultured in 24-well plates using DMEM with 10% FBS and 1% PS. The Sg metabolites at 1 and 5% v/v were added and incubated for 24 hrs before challenging with Pg-LPS at 100 ng/ml.
L-Norleucine as well as other metabolites modulate proinflammatory cytokines in macrophages and HGF. L-Norleucine was obtained commercially (Sigma) and dissolved in DMEM. Mouse macrophages and human HGF were cultured with DMEM supplemented with different concentrations of L-Norleucine and subsequently challenged with Pg-LPS at 100 ng/ml.
Human monocyte-derived macrophages (MDM) using THP-1 cells and HGF were cultured in a 24-well plate with DMEM and challenged with Pg-LPS at 100 ng/ml.
In addition, freshly isolated epidydimal white adipose tissues (eWAT) from mice on a HFD for 16 weeks were minced and cultured in 24-well plates and treated with HCA at 0.5 and 1.0 μM in DMEM/F-12 containing 10% cosmic calf serum (CCS) and 1% penicillin-streptomycin (basal growth media, BGM). […] These preliminary data are strong evidence that Sg metabolites have the potential to modulate host inflammatory responses and attenuate inflammation.
HCA promotes proliferation of health related bacteria and inhibits proliferation and attachment of periodontopathogenic bacteria. Promoting the growth of health-related commensal bacteria while inhibiting proliferation and attachment of pathogenic bacteria may be effective at preventing or treating periodontal inflammation. To determine if HCA has an effect on the growth properties of commensal bacteria and periodontopathogens, HCA at different concentrations was added to aerobic culture of S. mitis and S. oralis and anaerobic culture of T. denticola as described in our published manuscript (see detail in Shu et al, Journal of Periodontology, 2022). FIGS. 18A-C summarize the functions of HCA on the proliferation of specific commensal and pathogenic bacteria. […] Furthermore, the function of HCA on P. gingivalis attachment, a key parameter of adhesion and biofilm formation by periodontopathogenic bacteria, was investigated. […] Attachment measurements of P. gingivalis were performed based on our published studies (see detail in Shu et al, Journal of Periodontology, 2022). […] To test the biocompatibility and anti-inflammatory properties of HCA, human monocyte-derived macrophages (MDM) and gingival fibroblasts (HGF) were prepared as described in our previous studies. The cells were then treated with HCA from 0.1 to 50 μM. No toxicity was observed after treatment with different concentrations of HCA in either cell type using an MTT assay (FIGS. 19A and B, left column). The anti-inflammatory function of HCA on MDM and HGF after exposure to P. gingivalis lipopolysaccharide (PG-LPS) was investigated. […] HCA mitigates inflammation and affects the composition of microbiomes in vivo. Recent studies investigated whether HCA modulates periodontal inflammation using a mouse model. To induce periodontal inflammation, a total of 1 μl Pg-LPS at 10 μg/μl was directly injected twice a week into the interdental region between maxillary molars of C57BL/6J mice using a Hamilton1700 series syringe according to our previously published studies. […]

**Q.** Which results are given for `O=C(O)CCCCCO` [HCA, 6-hydroxycaproic acid]?
**A.** transcripts of IL-1β, IL-6, and IL-8 (HCA at 0.1 μM, 6 hours following PG-LPS challenge at 0.1 μg/mL): significantly downregulated; protein levels of IL-6 and IL-8 (HCA at 0.1 μM, HGF lysate, after 24 hrs): significantly reduced; transcripts of IL-1β, 6, and 8 (HCA at 0.1 and 1.0 μM, Pg-LPS at 100 ng/ml, after 6 hrs): significantly downregulated; proinflammatory cytokines (transcripts of IL-1β, 6 and 8) (at 0.1 μg after Pg-LPS challenge): modulate
